Literature values in patent US7584087B2, “Structure of protein kinase C theta” (Wyeth, priority 2004, dated 2009).

Legend:
Details in all cases: result in words, from Meggio et al. 1995
[1] = tested on: PKC isoforms
[2] = tested on: casein kinase 1 (CK1)
[3] = tested on: casein kinase 2 (CK2)
[4] = tested on: mitogen-activated protein kinase (MAPK)
[5] = target: CSK (Homo sapiens, UniProt P41240)
CSK, sequence (P41240 whole entry, species assumed): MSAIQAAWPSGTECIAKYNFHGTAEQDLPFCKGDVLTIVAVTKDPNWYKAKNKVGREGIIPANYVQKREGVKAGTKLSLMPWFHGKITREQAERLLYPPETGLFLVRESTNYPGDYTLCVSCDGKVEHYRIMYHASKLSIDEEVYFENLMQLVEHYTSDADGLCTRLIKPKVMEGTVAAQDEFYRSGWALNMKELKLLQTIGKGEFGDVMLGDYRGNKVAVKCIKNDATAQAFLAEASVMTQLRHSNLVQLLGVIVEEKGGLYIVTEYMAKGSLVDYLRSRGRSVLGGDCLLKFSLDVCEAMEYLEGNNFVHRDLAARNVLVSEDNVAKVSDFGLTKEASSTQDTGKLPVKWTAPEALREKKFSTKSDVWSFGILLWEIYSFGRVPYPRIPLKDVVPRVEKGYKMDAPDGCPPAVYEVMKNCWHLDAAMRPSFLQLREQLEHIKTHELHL

SMILES: CN[C@@H]1C[C@H]2O[C@@](C)([C@@H]1OC)n1c3ccccc3c3c4c(c5c6ccccc6n2c5c31)C(=O)NC4 [Staurosporine, staurosporine]
- potency against PKC isoforms [1]: low nanomolar
- potency against casein kinase 1 (CK1) [2]: micromolar
- potency against casein kinase 2 (CK2) [3]: micromolar
- potency against mitogen-activated protein kinase (MAPK) [4]: micromolar
- potency against CSK [5]: micromolar
